According to US20120115724A1, “METHOD OF CONTROLLING UNDESIRED VEGETATION” (SYNGENTA CROP PROTECTION LLC, priority 2009, published 2012):

Tests used:
Format in all cases: in vivo
SIDSP Sida spinosa = assay: Post-emergence crop and weed test (Example 15); conditions: 360 h, after 15 days, read-out: Percentage damage SIDSP
Description: (§1) Seeds of crop and representative weed species were sown in standard soil in pots. After cultivation for 14 days under controlled conditions in a glasshouse (at 22/16° C., day/night; 16 hours light; 65% humidity), the plants were sprayed. The spray solution was prepared by dissolving the technical active ingredient in acetone containing 10.56 wt % Emulsogen EL, 42.22 wt % N-methylpyrrolidone and 2.22 wt % DPG-monoethyl ether to give a 5% stock solution. This was then diluted with water containing 0.2% (v/v) of the adjuvant X-77 to give the desired treatment concentration.
(§2) The test plants were then grown on under controlled conditions in a glasshouse (at 22/16° C., day/night; 16 hours light; 65% humidity) and watered twice daily. After 15 days the test was evaluated (100 =total damage to plant; 0 =no damage to plant).

[1] = tested on: POLCO Polygonum convolvulus; assay: Post-emergence crop and weed test (Example 15); conditions: Fallopia convolvulus, 360 h, after 15 days, read-out: Percentage damage POLCO
Description: as §1, §2

[2] = tested on: XANST Xanthium strumarium; assay: Post-emergence crop and weed test (Example 15); conditions: 360 h, after 15 days, read-out: Percentage damage XANST
Description: as §1, §2

SINAR Sinapis arvensis = assay: Post-emergence crop and weed test (Example 15); conditions: Mutarda arvensis, 360 h, after 15 days, read-out: Percentage damage SINAR
Description: as §1, §2

[3] = tested on: AMARE Amaranthus retroflexus; assay: Post-emergence crop and weed test (Example 15); conditions: 360 h, after 15 days, read-out: Percentage damage AMARE
Description: as §1, §2

IPOHE Ipomoea hederacea = assay: Post-emergence crop and weed test (Example 15); conditions: 360 h, after 15 days, read-out: Percentage damage IPOHE
Description: as §1, §2

[4] = tested on: EPHHL Euphorbia heterophylla; assay: Post-emergence crop and weed test (Example 15); conditions: 360 h, after 15 days, read-out: Percentage damage EPHHL
Description: as §1, §2

CHEAL Chenopodium album = assay: Post-emergence crop and weed test (Example 15); conditions: 360 h, after 15 days, read-out: Percentage damage CHEAL
Description: as §1, §2

VERPE Veronica persica = assay: Post-emergence crop and weed test (Example 15); conditions: 360 h, after 15 days, read-out: Percentage damage VERPE
Description: as §1, §2

[5] = tested on: ABUTH Abutilon theophrasti; assay: Post-emergence crop and weed test (Example 15); conditions: 360 h, after 15 days, read-out: Percentage damage ABUTH
Description: as §1, §2

GLXMA Soybean = assay: Post-emergence crop and weed test (Example 15); conditions: Glycine max, 360 h, after 15 days, read-out: Percentage damage GLXMA
Description: as §1, §2

KCHSC Kochia scoparia = assay: Post-emergence crop and weed test (Example 15); conditions: Bassia scoparia, 360 h, after 15 days, read-out: Percentage damage KCHSC
Description: as §1, §2

[6] = tested on: Amaranthus retroflexus (AMARE); assay: Post-emergence biological efficacy (Example 14); conditions: Amaranthus retroflexus, 312 h; post-emergence, 1,000 g/ha, after 13 days; read-out: Percentage damage AMARE
Description: (§3) Seeds of Alopecurus myosuroides (ALOMY), Setaria faberi (SETFA), Echinochloa crus-galli (ECHCG), Solanum nigrum (SOLNI), Amaranthus retroflexus (AMARE) and Ipomea hederaceae (IPOHE) were sown in standard soil in pots. After cultivation for 8 days under controlled conditions in a glasshouse (at 24/16° C., day/night; 14 hours light; 65% humidity), the plants were sprayed with an aqueous spray solution derived from the formulation of the technical active ingredient in acetone/water (50:50) solution containing 0.5% Tween 20 (polyoxyethylene sorbitan monolaurate, CAS RN 9005-64-5) to give a final dose of 250 or 1000 g/ha of test compound. The test plants were then grown on under controlled conditions in a glasshouse (at 24/16° C., day/night; 14 hours light; 65% humidity) and watered twice daily. After 13 days the test was evaluated (100=total damage to plant; 0=no damage to plant).

[7] = tested on: Echinochloa crus-galli (ECHCG); assay: Post-emergence biological efficacy (Example 14); conditions: Echinochloa crus-galli, 312 h; post-emergence, 1,000 g/ha, after 13 days; read-out: Percentage damage ECHCG
Description: as §3

[8] = tested on: Alopecurus myosuroides (ALOMY); assay: Post-emergence biological efficacy (Example 14); conditions: Alopecurus myosuroides, 312 h; post-emergence, 1,000 g/ha, after 13 days; read-out: Percentage damage ALOMY
Description: as §3

Setaria faberi (SETFA) [9] = assay: Post-emergence biological efficacy (Example 14); conditions: Setaria faberi, 312 h; post-emergence, 1,000 g/ha, after 13 days; read-out: Percentage damage SETFA
Description: as §3

Solanum nigrum (SOLNI) [10] = assay: Post-emergence biological efficacy (Example 14); conditions: Solanum nigrum, 312 h; post-emergence, 1,000 g/ha, after 13 days; read-out: Percentage damage SOLNI
Description: as §3

[11] = tested on: Ipomea hederaceae (IPOHE); assay: Post-emergence biological efficacy (Example 14); conditions: Ipomoea hederacea, 312 h; post-emergence, 1,000 g/ha, after 13 days; read-out: Percentage damage IPOHE
Description: as §3

[12] = tested on: Amaranthus retroflexus (AMARE); assay: Pre-emergence biological efficacy (Example 13); conditions: Amaranthus retroflexus, 312 h; pre-emergence, 1,000 g/ha, after 13 days; read-out: Percentage damage AMARE
Description: (§4) Seeds of Alopecurus myosuroides (ALOMY), Setaria faberi (SETFA), Echinochloa crus-galli (ECHCG), Solanum nigrum (SOLNI), Amaranthus retroflexus (AMARE) and Ipomea hederaceae (IPOHE) were sown in standard soil in pots. After cultivation for one day under controlled conditions in a glasshouse (at 24/16° C., day/night; 14 hours light; 65% humidity), the plants were sprayed with an aqueous spray solution derived from the formulation of the technical active ingredient in acetone/water (50:50) solution containing 0.5% Tween 20 (polyoxyethylene sorbitan monolaurate, CAS RN 9005-64-5) to give a final dose of 250 or 1000g/ha of test compound. The test plants were then grown under controlled conditions in the glasshouse (at 24/16° C., day/night; 14 hours light; 65% humidity) and watered twice daily. After 13 days the test was evaluated (100 =total damage to plant; 0 =no damage to plant).

[13] = tested on: Echinochloa crus-galli (ECHCG); assay: Pre-emergence biological efficacy (Example 13); conditions: Echinochloa crus-galli, 312 h; pre-emergence, 1,000 g/ha, after 13 days; read-out: Percentage damage ECHCG
Description: as §4

[14] = tested on: Alopecurus myosuroides (ALOMY); assay: Pre-emergence biological efficacy (Example 13); conditions: Alopecurus myosuroides, 312 h; pre-emergence, 1,000 g/ha, after 13 days; read-out: Percentage damage ALOMY
Description: as §4

Setaria faberi (SETFA) [15] = assay: Pre-emergence biological efficacy (Example 13); conditions: Setaria faberi, 312 h; pre-emergence, 1,000 g/ha, after 13 days; read-out: Percentage damage SETFA
Description: as §4

Solanum nigrum (SOLNI) [16] = assay: Pre-emergence biological efficacy (Example 13); conditions: Solanum nigrum, 312 h; pre-emergence, 1,000 g/ha, after 13 days; read-out: Percentage damage SOLNI
Description: as §4

[17] = tested on: Ipomea hederaceae (IPOHE); assay: Pre-emergence biological efficacy (Example 13); conditions: Ipomoea hederacea, 312 h; pre-emergence, 1,000 g/ha, after 13 days; read-out: Percentage damage IPOHE
Description: as §4

SMILES: C=Cc1c(N)nc(C2CC2)nc1C(=O)OC [Ref. Ex. C, 4-Amino-2-cyclopropyl-5-ethenyl-6-methoxycarbonyl-pyrimidine, reference compound]
- pest or weed control at 8 g/ha (SIDSP Sida spinosa; 8 g/ha): 40%
- pest or weed control at 8 g/ha ([1]; 8 g/ha): 0%
- pest or weed control at 8 g/ha ([2]; 8 g/ha): 0%
- pest or weed control at 8 g/ha (SINAR Sinapis arvensis; 8 g/ha): 0%
- pest or weed control at 8 g/ha ([3]; 8 g/ha): 10%
- pest or weed control at 8 g/ha (IPOHE Ipomoea hederacea; 8 g/ha): 70%
- pest or weed control at 8 g/ha ([4]; 8 g/ha): 30%
- pest or weed control at 8 g/ha (CHEAL Chenopodium album; 8 g/ha): 60%
- pest or weed control at 8 g/ha (VERPE Veronica persica; 8 g/ha): 50%
- pest or weed control at 8 g/ha ([5]; 8 g/ha): 30%
- plant injury at 8 g/ha (GLXMA Soybean; 8 g/ha): 70%
- pest or weed control at 8 g/ha (KCHSC Kochia scoparia; 8 g/ha): 0%

SMILES: C=Cc1c(N)nc(-c2ccc(Cl)c(F)c2)nc1C(=O)OC [Compound 9, 4-Amino-2-(4-chloro-3-fluorophenyl)-5-ethenyl-6-methoxycarbonyl-pyrimidine]
- pest or weed control at 125 g/ha (SIDSP Sida spinosa; 125 g/ha): 80%
- pest or weed control at 125 g/ha ([1]; 125 g/ha): 70%
- pest or weed control at 125 g/ha ([2]; 125 g/ha): 100%
- pest or weed control at 125 g/ha (SINAR Sinapis arvensis; 125 g/ha): 80%
- pest or weed control at 125 g/ha ([3]; 125 g/ha): 100%
- pest or weed control at 125 g/ha (IPOHE Ipomoea hederacea; 125 g/ha): 80%
- pest or weed control at 125 g/ha ([4]; 125 g/ha): 80%
- pest or weed control at 125 g/ha (CHEAL Chenopodium album; 125 g/ha): 90%
- pest or weed control at 125 g/ha (VERPE Veronica persica; 125 g/ha): 80%
- pest or weed control at 125 g/ha ([5]; 125 g/ha): 80%
- plant injury at 125 g/ha (GLXMA Soybean; 125 g/ha): 0%
- pest or weed control at 125 g/ha (KCHSC Kochia scoparia; 125 g/ha): 90%

SMILES: C=Cc1c(N)nc(-c2ccc(Cl)cc2F)nc1C(=O)OC [Compound 10, 4-Amino-2-(4-chloro-2-fluorophenyl)-5-ethenyl-6-methoxycarbonyl-pyrimidine]
- pest or weed control at 15 g/ha (SIDSP Sida spinosa; 15 g/ha): 50%
- pest or weed control at 15 g/ha ([1]; 15 g/ha): 70%
- pest or weed control at 15 g/ha ([2]; 15 g/ha): 70%
- pest or weed control at 15 g/ha (SINAR Sinapis arvensis; 15 g/ha): 80%
- pest or weed control at 15 g/ha ([3]; 15 g/ha): 50%
- pest or weed control at 15 g/ha (IPOHE Ipomoea hederacea; 15 g/ha): 70%
- pest or weed control at 15 g/ha ([4]; 15 g/ha): 50%
- pest or weed control at 15 g/ha (CHEAL Chenopodium album; 15 g/ha): 80%
- pest or weed control at 15 g/ha (VERPE Veronica persica; 15 g/ha): 10%
- pest or weed control at 15 g/ha ([5]; 15 g/ha): 90%
- plant injury at 15 g/ha (GLXMA Soybean; 15 g/ha): 0%
- pest or weed control at 15 g/ha (KCHSC Kochia scoparia; 15 g/ha): 30%

SMILES: C=Cc1c(NCc2ccccc2[N+](=O)[O-])nc(-c2ccc(Cl)c(OC)c2F)nc1C(=O)OC [Compound 15, 2-(4-Chloro-2-fluoro-3-methoxyphenyl)-5-ethenyl-6-methoxycarbonyl-4-(2-nitrophenylmethyl-amino)-pyrimidine]
- pest or weed control at 1000 g/ha [6]: 100%
- pest or weed control at 1000 g/ha [7]: 90%
- pest or weed control at 1000 g/ha [8]: 70%
- pest or weed control at 1000 g/ha (Setaria faberi (SETFA) [9]): 70%
- pest or weed control at 1000 g/ha (Solanum nigrum (SOLNI) [10]): 90%
- pest or weed control at 1000 g/ha [11]: 90%
- pest or weed control at 1000 g/ha [12]: 100%
- pest or weed control at 1000 g/ha [13]: 70%
- pest or weed control at 1000 g/ha [14]: 50%
- pest or weed control at 1000 g/ha (Setaria faberi (SETFA) [15]): 0%
- pest or weed control at 1000 g/ha (Solanum nigrum (SOLNI) [16]): 100%
- pest or weed control at 1000 g/ha [17]: 100%
